Experimental data reported in US9783551B2, “Pyranochromenyl phenol derivative, and pharmaceutical composition for treating metabolic syndrome or inflammatory disease” (GLACEUM, INC., priority 2013, dated 2017).

How the values were obtained:
[1] = tested on: DIO mice; experiment: Anti-obesity effect for DIO mice (body weight); type: in vivo, C57BL/6 mice; conditions: Mus musculus, 672 h; 4 weeks, 150 mg/kg, oral gavage once daily
Description: Five-week-old female C57BL/6 mice (Narabio Co., Ltd.) were purchased and fed with only high-fat diet for at least 10 weeks to produce diet induced obesity ([…]) mice. Samples were exactly taken from Preparation Example 1 (glabridin) and the compounds of Examples of the present invention (Compounds 1 to 5, 7, 9, 11, 14 to 16, 21, and 23) according to the administration dose and put into Falcon tubes, 3 ml of a 0.5% methyl cellulose aqueous solution was added thereto and a vortex mixer was used to primarily mix the ingredients in a soft manner, and then a homogenizer (30,000 rpm, Ultra-Turrax® T10 Basic, IKA) was used to treat the sample for 3 minutes while 1.5 ml of a 0.5% methyl cellulose aqueous solution was added thereto. The sample thus prepared was administered through oral gavage using a disposable plastic syringe once daily for 28 days (4 weeks). The body weight was measured twice a week while the DIO mice were bred in this manner. Based on the data thus calculated, the anti-obesity effect (%) was calculated according to the equation defined as follows. Anti-Obesity Effect={(Body weight of control group)−(Body weight of experimental group)}/(Body weight of control group)×100

[2] = tested on: RAW264.7 macrophages; experiment: RAW264.7 macrophage NO assay (LPS-induced NO production, Griess reagent); type: cell-based
Description: (§1) After the pretreatment, the MTT (Sigma, M2128) reagent at a concentration of 0.5 mg/ml was further added thereto. After the cells were cultured in a 5% CO2 incubator for 4 hours, the supernatant was discarded, 150 μl of DMSO was added and was shaken for 30 minutes, and an ELISA micro plate reader (Bio Rad Laboratories Inc., California, USA, Model 680) was used to measure the absorbance at a wavelength of 540 nm. All the experimental values were calculated as an average value of three repeated experimental values of the cell protection rate for the control group, and an experiment of suppressing the NO production for each compound was carried out at a concentration in which no cytotoxicity was shown.
(§2) After the reaction, an ELISA micro plate reader (Bio Rad Laboratories Inc., California, USA, Model 680) was used to measure the absorbance at a wavelength of 540 nm. The suppression rate was calculated as a difference in amount of NO produced between the control group and the experimental group, and as shown in the following Table 7, Compounds 4, 5, 15, 16, 18, and the like of the present invention were excellent in the effect of suppressing the production of NO.

[3] = target: PTP1B (Homo sapiens (Human), UniProt P18031); experiment: Experiment of PTP1B inhibition (p-NPP dephosphorylation); type: biochemical; conditions: 2 mM p-NPP substrate, 30° C., 30 minutes
Sequence of PTP1B (P18031 whole entry, species assumed): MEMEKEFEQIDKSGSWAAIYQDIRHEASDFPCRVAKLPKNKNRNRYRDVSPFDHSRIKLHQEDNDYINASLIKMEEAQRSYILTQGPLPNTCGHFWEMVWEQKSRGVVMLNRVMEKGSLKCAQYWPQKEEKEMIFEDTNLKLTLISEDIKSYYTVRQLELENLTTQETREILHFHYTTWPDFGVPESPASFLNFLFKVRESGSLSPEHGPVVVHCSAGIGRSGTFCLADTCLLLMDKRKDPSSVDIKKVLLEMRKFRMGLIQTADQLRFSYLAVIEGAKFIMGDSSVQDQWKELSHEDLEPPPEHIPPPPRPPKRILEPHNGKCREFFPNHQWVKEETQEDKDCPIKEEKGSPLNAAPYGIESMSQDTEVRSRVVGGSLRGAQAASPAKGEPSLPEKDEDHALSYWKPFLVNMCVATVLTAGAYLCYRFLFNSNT
Description: With respect to PTP1B, the degrees of inhibition (IC50 The half maximal inhibitory concentration) of glabridin, and compounds of Preparation Example 2 (Compound 1), Example 2 (Compound 3), Example 3 (Compound 4), Example 4 (Compound 5), Example 13 (Compound 14), Example 14 (Compound 15), Example 15 (Compound 16), Example 17 (Compound 18), Example 18 (Compound 19) and Example 20 (Compound 21) were compared to each other. For this purpose, the degree of inhibition activity for PTP1B was investigated by using 2 mM p-nitrophenyl phosphate (p-NPP) as a substrate to measure the dephosphorylation degree. First, PTP1B diluted with distilled water was reacted with 2 mM p-nitrophenyl phosphate {p-NPP, 0.1 M NaCl, 1 mM EDTA, 50 mM citrate pH 6.0, and 1 mM dithiothreitol (DTT)} and Compound 1 at various concentrations at 30° C. for 30 minutes, and then the reaction was terminated with a 1 N-sodium hydroxide (NaOH) solution. The absorbance of the samples thus prepared was measured to confirm the inhibition degree (IC50: The half maximal inhibitory concentration) for PTP1B activity according to the concentration of Compound 1. Even for glabridin, Compound 3, Compound 4, Compound 5, Compound 14, Compound 15, Compound 16, Compound 18, Compound 19, and Compound 21, the same measurement was performed.

[4] = tested on: BV2 microglia cells; experiment: BV2 cell NO assay (LPS-induced NO production, Griess reagent); type: cell-based; conditions: Mus musculus, BV-2, LPS 1 μg/ml, 24 hours
Description: as §1, with “pretreatment, 0.5 mg/ml of” for “pretreatment,”, “reagent” for “reagent at a concentration of 0.5 mg/ml”, “incubator,” for “incubator for 4 hours,”
as §2, with “6 and FIG. 6,” for “7,”, “NO, and the effect is also about 5 times to about 9 times better than that of glabridin.” for “NO.”

[5] = tested on: db/db mice; experiment: Liver histology (H&E, perilipin antibody) of db/db mice after 6 weeks; type: in vivo, C57BLKS/J-db/db mice; conditions: administered for 6 weeks, compared with control group
Description: (§3) 5-week-old male C57BLKS/J-db/db mice (Central Lab. Animal Inc.) were purchased and acclimatized for 2 weeks, and then used in this experiment. Samples were exactly taken from the compounds prepared in Examples 4 and 15 of the present invention (Compounds 5 and 16) according to the administration dose and put into Falcon tubes, a 0.5% methyl cellulose aqueous solution stored refrigerated was placed at room temperature to allow the excipients to be warmed at room temperature, 16 ml of each of the excipients was added to a 50 ml Falcon tube, and a vortex mixer was used to primarily mix the ingredients in a soft manner, and then a suspension was obtained and homogenized by treating the sample for 3 minutes using a homogenizer (30,000 rpm, CPT-1600E, Kinemtica, Switzerland), and then ultrasonically treated for 30 minutes. The sample thus prepared was administered through oral gavage using a disposable plastic syringe equipped with a sonde once daily for 42 days (6 weeks).
The mouse to which Compound 16 had been administered for 6 weeks in this experiment was finally sacrificed and autopsied to collect a liver, the liver was excised and each stained with hematoxylin and eosin (H&E) and perilipin antibody, the stained tissue was observed using a microscope, and the results are shown in FIGS. 2 to 5. […]

[6] = tested on: db/db mice; experiment: Anti-diabetic effects for db/db mice (glycosylated hemoglobin); type: in vivo, C57BLKS/J-db/db mice
Description: as §3
The glycosylated hemoglobin (HbA1c) was measured while the db/db mice were bred. The gyclosylated hemoglobin was measured at 2 days prior to group separation, 4 weeks after administration, and 6 weeks after administration, and was measured by fasting the mice for 4 hours on the measurement date, collecting blood from the caudal vein before each material was administered, and using a device for measuring glycosylated hemoglobin (SD A1cCare, SD Biosensor, Inc., Korea).

- IC50 ([2]; Mus musculus, RAW264.7, NO production, LPS 1 μg/ml, 24 hours): 4.4 µM
- IC50 [3]: 1.9 µM
- IC50 [4]: 2.3 µM
SMILES: CCCOc1ccc(C2COc3c(ccc4c3CCC(C)(C)O4)C2)c(O)c1 (stereo not drawn) [Compound 16, 3-(2-hydroxy-4-propoxyphenyl)-8,8-dimethyl-2,3,4,8,9,10-hexahydropyrano [2,3-f] chromene]
- inhibition in vivo at 150 mg/kg [1]: 7%
- effect of suppressing the production of NO ([2]; RAW264.7 macrophages, in words): excellent
- liver tissue observation by microscope [5]: small and compact adipocytes
- HbA1c (%) 4 weeks ([6]; 4 weeks after administration, 300 mg/kg oral once daily): 6.7%
- HbA1c (%) 6 weeks ([6]; 6 weeks after administration, 300 mg/kg oral once daily): 6.2%
- HbA1c (%) Before administration ([6]; before administration, 300 mg/kg group): 4.7%
